Laboratory results as given in patent US8192962B2, “Processes for detecting toxic substances” (Daikin Industries, Ltd., priority 2001, dated 2012).

Test system: Energy system protein genes
Assay: DNA chip mRNA expression in yeast, energy system protein genes (Table 4)
Assay type: cell-based, Saccharomyces cerevisiae S288C
Summary of the method: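 S. cerevisiae S288C grown at 25° C. in YPD to log phase, then exposed 2 h to a toxicant at a growth-inhibiting, non-lethal concentration; untreated cells as control. Poly(A) mRNA reverse-transcribed with Cy3-dUTP or Cy5-dUTP, hybridized >12 h at 65° C. to whole-genome yeast DNA chip; value = fluorescence ratio treated/untreated.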

Structure (SMILES): CCCCCCCCCCCCc1ccc(S(=O)(=O)[O-])cc1.[Na+] [(17), sodium dodecylbenzosulfonate]
- The level of expressed mRNA in the presence of chemical substance/The level of expressed mRNA in the absence of chemical substance (yeast gene YAL060W): 1.1
- The level of expressed mRNA in the presence of chemical substance/The level of expressed mRNA in the absence of chemical substance (yeast gene YBL058W, cells incubated two hours with the chemical substance): 1.0
- The level of expressed mRNA in the presence of chemical substance/The level of expressed mRNA in the absence of chemical substance (yeast gene YBL099W, cells incubated two hours with the chemical substance): 0.7
- The level of expressed mRNA in the presence of chemical substance/The level of expressed mRNA in the absence of chemical substance (yeast gene YBR001C, cells incubated two hours with the chemical substance): 1.0
- The level of expressed mRNA in the presence of chemical substance/The level of expressed mRNA in the absence of chemical substance (yeast gene YBR185C, cells incubated two hours with the chemical substance): 0.8
- The level of expressed mRNA in the presence of chemical substance/The level of expressed mRNA in the absence of chemical substance (yeast gene YBR221C, cells incubated two hours with the chemical substance): 0.9
- The level of expressed mRNA in the presence of chemical substance/The level of expressed mRNA in the absence of chemical substance (yeast gene YCL040W): 1.4
- The level of expressed mRNA in the presence of chemical substance/The level of expressed mRNA in the absence of chemical substance (yeast gene YCR012W): 0.8
- The level of expressed mRNA in the presence of chemical substance/The level of expressed mRNA in the absence of chemical substance (yeast gene YCR046C, cells incubated two hours with the chemical substance): 1.3
- The level of expressed mRNA in the presence of chemical substance/The level of expressed mRNA in the absence of chemical substance (yeast gene YCR105W, cells incubated two hours with the chemical substance): 1.3
- The level of expressed mRNA in the presence of chemical substance/The level of expressed mRNA in the absence of chemical substance (yeast gene YDL021W): 1.9
- The level of expressed mRNA in the presence of chemical substance/The level of expressed mRNA in the absence of chemical substance (yeast gene YDL067C, cells incubated two hours with the chemical substance): 1.2
- The level of expressed mRNA in the presence of chemical substance/The level of expressed mRNA in the absence of chemical substance (yeast gene YDL078C, cells incubated two hours with the chemical substance): 1.1
- The level of expressed mRNA in the presence of chemical substance/The level of expressed mRNA in the absence of chemical substance (yeast gene YDL107W, cells incubated two hours with the chemical substance): 1.1
- The level of expressed mRNA in the presence of chemical substance/The level of expressed mRNA in the absence of chemical substance (yeast gene YDL174C): 2.2
- The level of expressed mRNA in the presence of chemical substance/The level of expressed mRNA in the absence of chemical substance (yeast gene YDL181W, cells incubated two hours with the chemical substance): 1.5
- The level of expressed mRNA in the presence of chemical substance/The level of expressed mRNA in the absence of chemical substance (yeast gene YDR001C): 1.1
- The level of expressed mRNA in the presence of chemical substance/The level of expressed mRNA in the absence of chemical substance (yeast gene YDR050C, cells incubated two hours with the chemical substance): 1.1
- The level of expressed mRNA in the presence of chemical substance/The level of expressed mRNA in the absence of chemical substance (yeast gene YDR079W, cells incubated two hours with the chemical substance): 1.1
- The level of expressed mRNA in the presence of chemical substance/The level of expressed mRNA in the absence of chemical substance (yeast gene YDR178W, cells incubated two hours with the chemical substance): 1.2
- The level of expressed mRNA in the presence of chemical substance/The level of expressed mRNA in the absence of chemical substance (yeast gene YDR231C): 1.2
- The level of expressed mRNA in the presence of chemical substance/The level of expressed mRNA in the absence of chemical substance (yeast gene YDR298C, cells incubated two hours with the chemical substance): 1.1
- The level of expressed mRNA in the presence of chemical substance/The level of expressed mRNA in the absence of chemical substance (yeast gene YDR377W, cells incubated two hours with the chemical substance): 1.2
- The level of expressed mRNA in the presence of chemical substance/The level of expressed mRNA in the absence of chemical substance (yeast gene YDR529C, cells incubated two hours with the chemical substance): 1.0
- The level of expressed mRNA in the presence of chemical substance/The level of expressed mRNA in the absence of chemical substance (yeast gene YEL024W, cells incubated two hours with the chemical substance): 1.1
- The level of expressed mRNA in the presence of chemical substance/The level of expressed mRNA in the absence of chemical substance (yeast gene YEL039C, cells incubated two hours with the chemical substance): 0.7
- The level of expressed mRNA in the presence of chemical substance/The level of expressed mRNA in the absence of chemical substance (yeast gene YER178W): 1.1
- The level of expressed mRNA in the presence of chemical substance/The level of expressed mRNA in the absence of chemical substance (yeast gene YFL057C): 1.6
- The level of expressed mRNA in the presence of chemical substance/The level of expressed mRNA in the absence of chemical substance (yeast gene YFR053C): 1.4
- The level of expressed mRNA in the presence of chemical substance/The level of expressed mRNA in the absence of chemical substance (yeast gene YGL018C, cells incubated two hours with the chemical substance): 0.8
- The level of expressed mRNA in the presence of chemical substance/The level of expressed mRNA in the absence of chemical substance (yeast gene YGL062W): 1.1
- The level of expressed mRNA in the presence of chemical substance/The level of expressed mRNA in the absence of chemical substance (yeast gene YGL187C, cells incubated two hours with the chemical substance): 0.9
- The level of expressed mRNA in the presence of chemical substance/The level of expressed mRNA in the absence of chemical substance (yeast gene YGL191W, cells incubated two hours with the chemical substance): 1.2
- The level of expressed mRNA in the presence of chemical substance/The level of expressed mRNA in the absence of chemical substance (yeast gene YGL205W, cells incubated two hours with the chemical substance): 3.9
- The level of expressed mRNA in the presence of chemical substance/The level of expressed mRNA in the absence of chemical substance (yeast gene YGL256W, cells incubated two hours with the chemical substance): 0.7
- The level of expressed mRNA in the presence of chemical substance/The level of expressed mRNA in the absence of chemical substance (yeast gene YGR043C): 1.6
- The level of expressed mRNA in the presence of chemical substance/The level of expressed mRNA in the absence of chemical substance (yeast gene YGR062C, cells incubated two hours with the chemical substance, 25° C., YPD medium): 0.9
- The level of expressed mRNA in the presence of chemical substance/The level of expressed mRNA in the absence of chemical substance (yeast gene YGR087C, cells incubated two hours with the chemical substance): 1.0
- The level of expressed mRNA in the presence of chemical substance/The level of expressed mRNA in the absence of chemical substance (yeast gene YGR174C, cells incubated two hours with the chemical substance): 1.3
- The level of expressed mRNA in the presence of chemical substance/The level of expressed mRNA in the absence of chemical substance (yeast gene YGR192C): 1.1
- The level of expressed mRNA in the presence of chemical substance/The level of expressed mRNA in the absence of chemical substance (yeast gene YGR244C): 1.9
- The level of expressed mRNA in the presence of chemical substance/The level of expressed mRNA in the absence of chemical substance (yeast gene YGR254W): 1.3
- The level of expressed mRNA in the presence of chemical substance/The level of expressed mRNA in the absence of chemical substance (yeast gene YHR179W): 1.9
- The level of expressed mRNA in the presence of chemical substance/The level of expressed mRNA in the absence of chemical substance (yeast gene YIL160C): 2.4
- The level of expressed mRNA in the presence of chemical substance/The level of expressed mRNA in the absence of chemical substance (yeast gene YIR031C, cells incubated two hours with the chemical substance): 0.9
- The level of expressed mRNA in the presence of chemical substance/The level of expressed mRNA in the absence of chemical substance (yeast gene YJL052W): 1.2
- The level of expressed mRNA in the presence of chemical substance/The level of expressed mRNA in the absence of chemical substance (yeast gene YJL121C, cells incubated two hours with the chemical substance): 1.1
- The level of expressed mRNA in the presence of chemical substance/The level of expressed mRNA in the absence of chemical substance (yeast gene YJL166W, cells incubated two hours with the chemical substance): 1.7
- The level of expressed mRNA in the presence of chemical substance/The level of expressed mRNA in the absence of chemical substance (yeast gene YJL216C, cells incubated two hours with the chemical substance): 1.2
- The level of expressed mRNA in the presence of chemical substance/The level of expressed mRNA in the absence of chemical substance (yeast gene YJR009C): 1.1
